Laboratory results as given in patent US9012200B2, “Composition of bacterial strains, bioremediation mixture and use of this composition for the removal of contaminants from the soil and the method for purifying the soil contaminants” (priority 2012, dated 2015).
≈ marks a conversion by molar mass, not a printed value.

Assays:
[1] = tested on: Achromobacter sp. strain 4P; format: cell-based
[2] = tested on: Pseudomonas sp. strain 3G; format: cell-based; conditions: 24 h
[3] = tested on: Pseudomonas sp. strain 4G; format: cell-based; conditions: 24 h
[4] = tested on: Stenotrophomonas sp. strain 2L; format: cell-based
[5] = tested on: Stenotrophomonas sp. strain 5L; format: cell-based
[6] = tested on: Stenotrophomonas sp. strain 6L; format: cell-based
[7] = tested on: Arthrobacter sp. strain 1N; format: cell-based
[8] = tested on: Brevundimonas sp. strain 2N; format: cell-based
[9] = tested on: Stenotrophomonas sp. strain 3N; format: cell-based
[10] = tested on: Brevundimonas sp. strain 5N; format: cell-based
[11] = tested on: Brevundimonas sp. strain 6N; format: cell-based
[12] = tested on: investigated strains of bacteria; format: cell-based
[13] = tested on: model strain Escherichia coli; conditions: according to Spain, 2003; cited from earlier work
[14] = tested on: Achromobacter sp. strain 4P; assay: Disc diffusion antibiotic susceptibility; format: cell-based
Procedure: (§1) A disc diffusion method was performed to determine the susceptibility of bacteria to the selected antibiotics. We used discs soaked with the antibiotic of a well-defined concentration (BioMerioux) (Table 2) and the minimal inhibitory concentration test was carried out, using E-tests (Oxoid) (Table 3).
(§2) A McFarland's 0.5 inoculum was prepared from each strain's culture, using a densitometer (EMO). Then, using sterile cotton swabs, the suspension of bacterial cells was spread on dishes with ready-to-use MHA medium (Oxoid), and after 15 minutes, discs soaked with antibiotics at defined concentrations were placed on them.
(§3) The dishes were incubated at 25-30° C., and the results were read after 24 and 48 hours. The measure of susceptibility of a tested strain to a given antibiotic was the size of the inhibition zone which formed around the disc soaked with the antibiotic. The results read (sizes of zones measured in mm) were compared with the data contained in the European Committee on Antimicrobial Susceptibility Testing (EUCAST) standards from 2010 (Table 4).
(§4) The measure of susceptibility of the tested bacterial strain to a given antibiotic was the size of the inhibition zone which formed around the disc (Table 5).

[15] = tested on: Arthrobacter sp. strain 1N; assay: Disc diffusion antibiotic susceptibility; format: cell-based
Procedure: as §1, §2, §3, §4

[16] = tested on: Brevundimonas sp. strain 2N; assay: Disc diffusion antibiotic susceptibility; format: cell-based
Procedure: as §1, §2, §3, §4

[17] = tested on: Brevundimonas sp. strain 5N; assay: Disc diffusion antibiotic susceptibility; format: cell-based
Procedure: as §1, §2, §3, §4

[18] = tested on: Brevundimonas sp. strain 6N; assay: Disc diffusion antibiotic susceptibility; format: cell-based
Procedure: as §1, §2, §3, §4

[19] = tested on: Pseudomonas sp. strain 3G; assay: Disc diffusion antibiotic susceptibility; format: cell-based
Procedure: as §1, §2, §3, §4

[20] = tested on: Pseudomonas sp. strain 4G; assay: Disc diffusion antibiotic susceptibility; format: cell-based
Procedure: as §1, §2, §3, §4

[21] = tested on: Stenotrophomonas sp. strain 2L; assay: Disc diffusion antibiotic susceptibility; format: cell-based
Procedure: as §1, §2, §3, §4

[22] = tested on: Stenotrophomonas sp. strain 3N; assay: Disc diffusion antibiotic susceptibility; format: cell-based
Procedure: as §1, §2, §3, §4

[23] = tested on: Stenotrophomonas sp. strain 5L; assay: Disc diffusion antibiotic susceptibility; format: cell-based
Procedure: as §1, §2, §3, §4

[24] = tested on: Stenotrophomonas sp. strain 6L; assay: Disc diffusion antibiotic susceptibility; format: cell-based
Procedure: as §1, §2, §3, §4

[25] = tested on: Achromobacter sp. strain 4P; assay: Antibiotic MIC by E-test; format: cell-based; conditions: strain 4P, E-test, 24 h; for MIC: Achromobacter, read-out: MIC threshold values for a given antibiotic
Procedure: as §1
(§5) In the next stage of the research, MIC values of a given antibiotic for the investigated strains were determined, meaning the lowest concentration of the drug, expressed in mg/L, determined in vitro, which inhibits the growth of bacteria at a defined inoculum density, within a given time (Hryniewicz et at, 2001). These studies allow for the closer determination of the degree of susceptibility of bacteria to the applied antibiotics.
(§6) A bacterial suspension was evenly distributed on dishes with ready-to-use MHA medium (Oxoid), and then plastic testing strips (E-tests) soaked with an antibiotic with a concentration gradient were placed thereon. The dishes were incubated at 25-30° C. for 24 h, and the test results were read after this time.
(§7) The intersection of elliptical zone of inhibition, which appeared around the test strip, with the value indicator on the gradient scale of the strip, determined the lowest concentration of antibiotic, inhibiting growth of the microorganism (MIC). Similarly as in the disc diffusion method, the obtained results were compared with the guidelines contained in the relevant standards.

[26] = tested on: Arthrobacter sp. strain 1N; assay: Antibiotic MIC by E-test; format: cell-based; conditions: strain 1N, E-test, 24 h; for MIC: Arthrobacter, read-out: MIC threshold values for a given antibiotic
Procedure: as §1, §5, §6, §7

[27] = tested on: Brevundimonas sp. strain 2N; assay: Antibiotic MIC by E-test; format: cell-based; conditions: 24 h; for MIC: Brevundimonas, read-out: MIC threshold values for a given antibiotic
Procedure: as §1, §5, §6, §7

[28] = tested on: Brevundimonas sp. strain 5N; assay: Antibiotic MIC by E-test; format: cell-based; conditions: 24 h; for MIC: Brevundimonas, read-out: MIC threshold values for a given antibiotic
Procedure: as §1, §5, §6, §7

[29] = tested on: Brevundimonas sp. strain 6N; assay: Antibiotic MIC by E-test; format: cell-based; conditions: 24 h; for MIC: Brevundimonas, read-out: MIC threshold values for a given antibiotic
Procedure: as §1, §5, §6, §7

[30] = tested on: Pseudomonas sp. strain 3G; assay: Antibiotic MIC by E-test; format: cell-based; conditions: 24 h; for MIC: Pseudomonas, read-out: MIC threshold values for a given antibiotic
Procedure: as §1, §5, §6, §7

[31] = tested on: Pseudomonas sp. strain 4G; assay: Antibiotic MIC by E-test; format: cell-based; conditions: 24 h; for MIC: Pseudomonas, read-out: MIC threshold values for a given antibiotic
Procedure: as §1, §5, §6, §7

[32] = tested on: Stenotrophomonas sp. strain 2L; assay: Antibiotic MIC by E-test; format: cell-based; conditions: 24 h; for MIC: Stenotrophomonas, read-out: MIC threshold values for a given antibiotic
Procedure: as §1, §5, §6, §7

[33] = tested on: Stenotrophomonas sp. strain 3N; assay: Antibiotic MIC by E-test; format: cell-based; conditions: 24 h; for MIC: Stenotrophomonas, read-out: MIC threshold values for a given antibiotic
Procedure: as §1, §5, §6, §7

[34] = tested on: Stenotrophomonas sp. strain 5L; assay: Antibiotic MIC by E-test; format: cell-based; conditions: 24 h; for MIC: Stenotrophomonas, read-out: MIC threshold values for a given antibiotic
Procedure: as §1, §5, §6, §7

[35] = tested on: Stenotrophomonas sp. strain 6L; assay: Antibiotic MIC by E-test; format: cell-based; conditions: 24 h; for MIC: Stenotrophomonas, read-out: MIC threshold values for a given antibiotic
Procedure: as §1, §5, §6, §7

O=S(=O)([O-])[O-].[Cd+2] [Cd(II), Cadmium sulphate]
MIC threshold values of heavy metals [1]: 0.1(0.2) mM/L | MIC threshold values of heavy metals [2]: 0.1 mM/L | MIC threshold values of heavy metals [3]: 0.1 mM/L | MIC threshold values of heavy metals [4]: 0.1 mM/L | MIC threshold values of heavy metals [5]: 0.1 mM/L | MIC threshold values of heavy metals [6]: 0.1 mM/L | MIC threshold values of heavy metals [7]: 0.1 mM/L | MIC threshold values of heavy metals [8]: 0.1 mM/L | MIC threshold values of heavy metals [9]: 0.1 mM/L | MIC threshold values of heavy metals [10]: 0.1(0.2) mM/L | MIC threshold values of heavy metals [11]: 0.1 mM/L | Growth of the strains in the presence of the metal salt [12]: None of the investigated strains was able to grow | Susceptibility of the investigated strains to the heavy metal [12]: susceptible | MIC [13]: 0.5 mM/L

[K+].[K+].[O]=[Cr](=[O])([O-])[O][Cr](=[O])(=[O])[O-] [Cr(VI), Potassium dichromate]
Susceptibility of the investigated strains to the heavy metal [12]: resistant | MIC [13]: 0.2 mM/L

[H]/N=C(/N)N[C@H]1[C@H](O)[C@@H](O)[C@H](O[C@@H]2O[C@@H](C)[C@](O)(C=O)[C@H]2O[C@@H]2O[C@@H](CO)[C@H](O)[C@@H](O)[C@@H]2NC)[C@@H](N/C(N)=N\[H])[C@@H]1O [S, streptomycin]
Size of the growth inhibition zone ([14]; 24 h): 0 mm | Size of the growth inhibition zone ([15]; 24 h): 12 mm | Size of the growth inhibition zone ([15]; 48 h): 10 mm | Size of the growth inhibition zone ([16]; 24 h): 0 mm | Size of the growth inhibition zone ([17]; 24 h): 0 mm | Size of the growth inhibition zone ([18]; 24 h): 0 mm | Size of the growth inhibition zone ([19]; 24 h): 10 mm | Size of the growth inhibition zone ([20]; 24 h): 0 mm | Size of the growth inhibition zone ([21]; 24 h): 16 mm | Size of the growth inhibition zone ([21]; 48 h): 10 mm | Size of the growth inhibition zone ([22]; 24 h): 0 mm | Size of the growth inhibition zone ([23]; 24 h): 8 mm | Size of the growth inhibition zone ([24]; 24 h): 0 mm | MIC [25]: 96 µg/mL (≈ 165 µM) | MIC [26]: 48 µg/mL (≈ 82.5 µM) | MIC [27]: 384 µg/mL (≈ 660 µM) | MIC [28]: 64 µg/mL (≈ 110 µM) | MIC [29]: ≥ 1020 µg/mL | MIC [30]: ≥ 1020 µg/mL | MIC [31]: ≥ 1020 µg/mL | MIC [32]: 64 µg/mL (≈ 110 µM) | MIC [33]: 384 µg/mL (≈ 660 µM) | MIC [34]: 64 µg/mL (≈ 110 µM) | MIC [35]: ≥ 1020 µg/mL

CN(C)[C@@H]1C(O)=C(C(N)=O)C(=O)[C@@]2(O)C(O)=C3C(=O)c4c(O)cccc4[C@@](C)(O)[C@H]3C[C@@H]12 [TE, tetracycline]
Size of the growth inhibition zone ([14]; 24 h): 19 mm | Size of the growth inhibition zone ([14]; 48 h): 0 mm | Size of the growth inhibition zone ([15]; 24 h): 17 mm | Size of the growth inhibition zone ([15]; 48 h): 0 mm | Size of the growth inhibition zone ([16]; 24 h): 18 mm | Size of the growth inhibition zone ([16]; 48 h): 0 mm | Size of the growth inhibition zone ([17]; 24 h): 18 mm | Size of the growth inhibition zone ([17]; 48 h): 0 mm | Size of the growth inhibition zone ([18]; 24 h): 17 mm | Size of the growth inhibition zone ([18]; 48 h): 0 mm | Size of the growth inhibition zone ([19]; 24 h): 17 mm | Size of the growth inhibition zone ([19]; 48 h): 0 mm | Size of the growth inhibition zone ([20]; 24 h): 19 mm | Size of the growth inhibition zone ([20]; 48 h): 0 mm | Size of the growth inhibition zone ([21]; 24 h): 17 mm | Size of the growth inhibition zone ([21]; 48 h): 0 mm | Size of the growth inhibition zone ([22]; 24 h): 19 mm | Size of the growth inhibition zone ([22]; 48 h): 0 mm | Size of the growth inhibition zone ([23]; 24 h): 19 mm | Size of the growth inhibition zone ([23]; 48 h): 0 mm | Size of the growth inhibition zone ([24]; 24 h): 17 mm | Size of the growth inhibition zone ([24]; 48 h): 0 mm | MIC [25]: 12 µg/mL (≈ 27 µM) | MIC [26]: 6 µg/mL (≈ 13.5 µM) | MIC [27]: 6 µg/mL (≈ 13.5 µM) | MIC [28]: 6 µg/mL (≈ 13.5 µM) | MIC [29]: 6 µg/mL (≈ 13.5 µM) | MIC [30]: 6 µg/mL (≈ 13.5 µM) | MIC [31]: 6 µg/mL (≈ 13.5 µM) | MIC [32]: 6 µg/mL (≈ 13.5 µM) | MIC [33]: 6 µg/mL (≈ 13.5 µM) | MIC [34]: 8 µg/mL (≈ 18 µM) | MIC [35]: 6 µg/mL (≈ 13.5 µM)

gentamicin [CN]
Size of the growth inhibition zone ([14]; 24 h): 22 mm | Size of the growth inhibition zone ([14]; 48 h): 21 mm | Size of the growth inhibition zone ([15]; 24 h): 23 mm | Size of the growth inhibition zone ([15]; 48 h): 18 mm | Size of the growth inhibition zone ([16]; 24 h): 24 mm | Size of the growth inhibition zone ([16]; 48 h): 21 mm | Size of the growth inhibition zone ([17]; 24 h): 24 mm | Size of the growth inhibition zone ([18]; 24 h): 23 mm | Size of the growth inhibition zone ([18]; 48 h): 20 mm | Size of the growth inhibition zone ([19]; 24 h): 22 mm | Size of the growth inhibition zone ([19]; 48 h): 20 mm | Size of the growth inhibition zone ([20]; 24 h): 0 mm | Size of the growth inhibition zone ([21]; 24 h): 24 mm | Size of the growth inhibition zone ([21]; 48 h): 19 mm | Size of the growth inhibition zone ([22]; 24 h): 25 mm | Size of the growth inhibition zone ([22]; 48 h): 0 mm | Size of the growth inhibition zone ([23]; 24 h): 22 mm | Size of the growth inhibition zone ([24]; 24 h): 0 mm | MIC threshold values for a given antibiotic [25]: 4 µg/mL | MIC threshold values for a given antibiotic [26]: 8 µg/mL | MIC threshold values for a given antibiotic [27]: 8 µg/mL | MIC threshold values for a given antibiotic [28]: 4 µg/mL | MIC threshold values for a given antibiotic [29]: 8 µg/mL | MIC threshold values for a given antibiotic [30]: ≧256 μg/ml | MIC threshold values for a given antibiotic [31]: ≧256 μg/ml | MIC threshold values for a given antibiotic [32]: 4 µg/mL | MIC threshold values for a given antibiotic [33]: 8 µg/mL | MIC threshold values for a given antibiotic [34]: 8 µg/mL | MIC threshold values for a given antibiotic [35]: 256 µg/mL
